Assay [1] concerns RD cells. Briefly: Microscopic examination of morphological changes of treated cells. The format is cell-based, human. The note with it: highest concentration 50 ng/mL, 24 hours. The protocol: The morphological changes of RD cells and CC-1 cells after the treatment with different concentrations of the test solution over 24 hours were detected by microscopic examination of cells. Morphological changes were compared with the negative and positive controls under fluorescence microscope.

Assay [2] deals with CC-1 cell line (normal epithelial cells). Description: MTT assay, cytotoxicity against normal CC-1 cell line. The format is cell-based, mice. The note with it: CC50 in CC-1 cells / IC50 in RD cells. The protocol: (§1) RD and CC-1 cell lines were cultured in DMEM supplemented with 10% heat inactivated fetal bovine serum (FBS), 3% glutamine, sodium bicarbonate and antibiotic (penicillin/streptomycin). The cells were incubated at 37° C. in a humidified CO2 incubator.
Antiproliferative activities of inoscavin A against RD and CC-1 cells were determined using MTT (3, 4, 5-(dimethyl-thiazol-2-yl) 2-5-diphenyl tetrazolium bromide) assay. Metabolically active cells reduce MTT in to purple colored formazan crystals. Adherent cell lines were transferred with 0.12% trypsin and 0.5% EDTA and cells (2×10^5 cells/well) were seeded in 24-well plates and incubated overnight with 1 mL of the DMEM medium described above. […]
In all experiments, cycloheximide (5 mM, 50 μl) was used as the positive control and negative control contained 0.25% DMSO in growth media. […] The remaining formazan crystals were solubilized with 750 μl of 0.05 M HCl (in 2-propanol) and absorbance was measured at 570 nm. Percentage cell viability was determined using the equation below.
The net absorbance from the wells of the untreated cells (negative control) was taken as the 100% viability. IC50 of the test solution against RD cells was determined by regression analysis of the corresponding dose response curve. CC50 of the test solution against CC-1 cell line was also calculated using the regression analysis. […]
In general terms: Tetrazolium dyes change colour on reduction, which living cells bring about.

The test system of assay [3] is RD cells. Briefly: Ethidium bromide/acridine orange staining for apoptosis. The format is cell-based, human. Conditions: 24 hours. The protocol: Ethidium bromide and acridine orange staining were performed to investigate the apoptosis induced by inoscavin A against RD cells. Ethidium bromide (EB) is only occupied by cells with damaged cell membranes. Acridine orange (AO) permeates via both live and dead cells. Cells were seeded in chamber slides and the confluent layer was treated with the test solution containing inoscavin A at different concentrations for 24 hours at 37° C. as described previously. The adherent cells were washed with 200 μL of PBS and 2 μL of the dye mixture containing ethidium bromide ([…]) and acridine orange ([…]) was placed on each well of the chamber slide. Chamber slides were examined immediately under the fluorescence microscope. Images were photographed using a Nikon D 700 camera connected to the microscope.

In assay [4] the test system is RD cell line (human rhabdomyosarcoma). Briefly: MTT assay, antiproliferative activity against RD cell line. Type of assay: cell-based. The note with it: for IC50: Homo sapiens, RD, MTT, 24 hour treatment. The protocol: as §1
Antiproliferative activities of inoscavin A against RD and CC-1 cells were determined using MTT (3, 4, 5-(dimethyl-thiazol-2-yl) 2-5-diphenyl tetrazolium bromide) assay. Metabolically active cells reduce MTT in to purple colored formazan crystals. Adherent cell lines were transferred with 0.12% trypsin and 0.5% EDTA and cells (2×10^5 cells/well) were seeded in 24-well plates and incubated overnight with 1 mL of the DMEM medium described above. The stock solution of inoscavin A was prepared in DMSO at a concentration of 1 mg/ml and subsequently diluted up to 1000 ng/ml in order to prepare the working standards. The resulting monolayers of RD cells and CC-1 cells (70% confluence) were treated with different concentrations of the test solution and incubated for 24 hours at 37° C.
In all experiments, cycloheximide (5 mM, 50 μl) was used as the positive control and negative control contained 0.25% DMSO in growth media. The culture medium was replaced with fresh medium (1 ml) after 24 hours and MTT (5 mg/ml; 100 μl) was added to each well. The cells were incubated at 37° C. for 3 hours and the medium was aspirated carefully. The remaining formazan crystals were solubilized with 750 μl of 0.05 M HCl (in 2-propanol) and absorbance was measured at 570 nm. Percentage cell viability was determined using the equation below.
The net absorbance from the wells of the untreated cells (negative control) was taken as the 100% viability. IC50 of the test solution against RD cells was determined by regression analysis of the corresponding dose response curve. CC50 of the test solution against CC-1 cell line was also calculated using the regression analysis. Safety of the compound for normal cells was determined in terms of selectivity index (SI) by calculating the ratio of CC50/IC50. SI value>2 is considered as safe.

The record followed here is patent US10501472B2, “Method to isolate inoscavin a from Fulviformes fastuosus and medicinal preparation thereof to treat rhabdomyosarcoma cancer conditions” (University of Colombo, priority 2015, dated 2019).

“Also recorded” adds a separate entry of the source. Like-named read-outs stand apart in the source and are kept apart here.

As to `CC1=CC(=O)C2(O1)c1c(cc(/C=C/c3ccc(O)c(O)c3)oc1=O)OC2c1ccc(O)c(O)c1` (stereo not shown) [inoscavin A, 2-(3,4-dihydroxyphenyl)-6-[(E)-2-(3,4-dihydroxyphenyl)ethenyl]-5′-methylspiro[2H-furo[3,2-c]pyran-3,2′-furan]-3′,4-dione], the “morphological changes of RD cells” value in assay [1] was “detached and round shape dead cells”. Also, in assay [2], the “selectivity index (SI), ratio of CC50/IC50” value was 6185.18. Also, in assay [3], the “apoptosis induction (AO/EB staining)” value is given as “confirmed the apoptosis induced by inoscavin A; also recorded: mediated through apoptosis”. For the same molecule, the IC50 in assay [4] (mean of three independent sample preparations, read-out: IC50 against RD cells) stood at 28 nM; in assay [4] (read-out: IC50 against RD cell line) it was 0.0128 µg/mL. Further, the “maximum inhibition of cell growth” value in assay [4] (RD cells, concentrations over 60 ng/mL to 100 ng/mL) is on record as 75%. Moreover, the “antiproliferative activity relative to mangiferin” value in assay [4] (RD cells, inoscavin A versus mangiferin) is “approximately 2500 times”.

What is called IC50 is the concentration that gives 50% inhibition.
